“Also recorded” adds a separate entry of the source.
Experiments:
DM subject [1] = experiment: Multidimensional Fatigue Inventory, self-reported; type: in vivo, human; conditions: additional DM subject; ON treatment: flumazenil 12-18 mg sublingual plus 12 mg topical daily, or armodafinil 250 mg QAM
DM subject [2] = experiment: Fatigue severity scale, self-reported; type: in vivo, human; conditions: additional DM subject; ON treatment: flumazenil 12-18 mg sublingual plus 12 mg topical daily, or armodafinil 250 mg QAM
DM subject [3] = experiment: Sleep inertia questionnaire, self-reported; type: in vivo, human; conditions: additional DM subject; ON treatment: flumazenil 12-18 mg sublingual plus 12 mg topical daily, or armodafinil 250 mg QAM
DM subject [4] = experiment: Functional Outcomes of sleep, self-reported; type: in vivo, human; conditions: additional DM subject; ON treatment: flumazenil 12-18 mg sublingual plus 12 mg topical daily, or armodafinil 250 mg QAM
DM subject [5] = experiment: Hypersomnia Severity Index, self-reported; type: in vivo, human; conditions: additional DM subject; ON treatment: flumazenil 12-18 mg sublingual plus 12 mg topical daily, or armodafinil 250 mg QAM
DM subject [6] = experiment: Owl Lark questionnaire, self-reported; type: in vivo, human; conditions: additional DM subject; ON treatment: flumazenil 12-18 mg sublingual plus 12 mg topical daily, or armodafinil 250 mg QAM
DM subject [7] = experiment: Beck Depression Inventory, self-reported; type: in vivo, human; conditions: additional DM subject; ON treatment: flumazenil 12-18 mg sublingual plus 12 mg topical daily, or armodafinil 250 mg QAM
DM subject [8] = experiment: Epworth Sleepiness Scale, self-reported
[9] = test system: MBNL2 knockout and DMSXL transgenic mouse models; conditions: MBNL2 knockout and DMSXL transgenic mice; Charizanis et al. 2012; cited from earlier work
DM subject [10] = experiment: Clinical treatment of hypersomnia and cognitive deficits in DM subjects; type: in vivo, human
[11] = target: GABRG2S-containing receptors in HEK293T cells (Homo sapiens, UniProt P14867+P18507); experiment: Patch clamp electrophysiology with DM subject CSF in HEK293T cells; conditions: CSF from DM subject 2, with GABA; clarithromycin added
Sequence of GABRG2S-containing receptors in HEK293T cells (P18507 40-467 isoform P18507-1 limits assumed): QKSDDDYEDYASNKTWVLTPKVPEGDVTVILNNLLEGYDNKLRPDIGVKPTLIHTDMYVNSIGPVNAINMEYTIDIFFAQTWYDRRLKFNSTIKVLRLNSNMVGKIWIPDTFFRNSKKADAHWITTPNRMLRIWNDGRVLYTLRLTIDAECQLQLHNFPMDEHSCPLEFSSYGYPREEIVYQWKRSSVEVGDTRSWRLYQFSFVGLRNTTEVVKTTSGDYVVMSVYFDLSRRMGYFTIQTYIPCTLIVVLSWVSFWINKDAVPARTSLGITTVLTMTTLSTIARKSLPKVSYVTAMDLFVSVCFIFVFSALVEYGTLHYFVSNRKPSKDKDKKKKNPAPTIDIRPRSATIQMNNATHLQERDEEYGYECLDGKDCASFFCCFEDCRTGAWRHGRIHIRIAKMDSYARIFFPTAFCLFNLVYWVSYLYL
Sequence of GABRG2S-containing receptors in HEK293T cells (P14867 28-456): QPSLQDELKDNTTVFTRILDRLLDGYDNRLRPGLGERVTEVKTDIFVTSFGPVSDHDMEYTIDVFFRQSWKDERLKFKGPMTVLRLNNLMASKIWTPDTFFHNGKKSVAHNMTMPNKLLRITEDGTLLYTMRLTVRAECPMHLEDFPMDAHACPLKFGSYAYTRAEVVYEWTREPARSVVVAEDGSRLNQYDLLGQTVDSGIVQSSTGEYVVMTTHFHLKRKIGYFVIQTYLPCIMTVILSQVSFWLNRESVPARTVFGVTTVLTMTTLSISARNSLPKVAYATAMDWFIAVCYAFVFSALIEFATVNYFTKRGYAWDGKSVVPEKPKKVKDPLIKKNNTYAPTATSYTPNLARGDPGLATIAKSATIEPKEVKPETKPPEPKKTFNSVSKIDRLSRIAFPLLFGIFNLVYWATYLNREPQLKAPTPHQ
Sequence of GABRG2S-containing receptors in HEK293T cells (P47870 25-512 partner limits assumed): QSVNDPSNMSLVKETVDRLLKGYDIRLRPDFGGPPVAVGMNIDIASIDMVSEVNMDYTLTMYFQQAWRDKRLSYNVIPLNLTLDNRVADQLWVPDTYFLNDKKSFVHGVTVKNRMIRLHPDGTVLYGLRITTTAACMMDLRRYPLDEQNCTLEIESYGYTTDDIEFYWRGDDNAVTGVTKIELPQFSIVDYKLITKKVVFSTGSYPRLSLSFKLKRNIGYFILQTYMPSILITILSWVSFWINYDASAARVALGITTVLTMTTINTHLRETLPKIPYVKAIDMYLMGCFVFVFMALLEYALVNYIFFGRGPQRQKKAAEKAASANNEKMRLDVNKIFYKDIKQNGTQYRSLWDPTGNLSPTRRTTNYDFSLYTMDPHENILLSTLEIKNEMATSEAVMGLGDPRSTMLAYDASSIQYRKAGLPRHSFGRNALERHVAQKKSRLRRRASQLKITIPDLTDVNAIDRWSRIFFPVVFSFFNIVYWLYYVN

gamma 2L deficient mice = conditions: Quinlan et al. 2000; cited from earlier work
[12] = test system: benzodiazepine binding site of GABAA receptors; conditions: previous work, Rye et al. 2012; cited from earlier work
[13] = test system: idiopathic hypersomnia (IH) subjects; conditions: previous work, Rye 2012; Trotti 2016; cited from earlier work
DM subject 1 [14] = experiment: Stanford sleepiness scale; conditions: intravenous flumazenil, 2 different doses incl. 2.0 mg, average of 3 assessments over one hour
DM subject 1 [15] = experiment: Ten-minute psychomotor vigilance task
[16] = additional DM subject, ON treatment: flumazenil 12-18 mg sublingual plus 12 mg topical daily, or armodafinil 250 mg QAM

Q: Which results are given for `NC(=O)C[S@@+]([O-])C(c1ccccc1)c1ccccc1` [Armodafmil, armodafinil]?
A: General Fatigue (5-20) (DM subject [1]): 15; Mental Fatigue (5-20) (DM subject [1]): 11; Physical Fatigue (5-20) (DM subject [1]): 6; Reduced Activity (5-20) (DM subject [1]): 7; Reduced Motivation (5-20) (DM subject [1]): 5; Fatigue severity scale (7-63) (DM subject [2]): 47; Sleep inertia questionnaire (DM subject [3]): 14.683; Functional Outcomes of sleep (5-20) (DM subject [4]): 16.875; Hypersomnia Severity Index (0-36) (DM subject [5]): 25; Owl Lark (DM subject [6]): 36; Beck Depression Inventory (0-39) (DM subject [7]): 3; Epworth Sleepiness Scale (DM subject [8]; [16]): 8

Q: For `C1CCc2nnnn2CC1` [Pentylenetetrazole], which “spontaneous seizure and death in response to PTZ” value [9] is on record?
A: The value was “increased frequency of spontaneous seizure and death”.

Q: Which results are given for `CC[C@H]1OC(=O)[C@H](C)[C@@H](O[C@H]2C[C@@](C)(OC)[C@@H](O)[C@H](C)O2)[C@H](C)[C@@H](O[C@@H]2O[C@H](C)C[C@H](N(C)C)[C@H]2O)[C@](C)(OC)C[C@@H](C)C(=O)[C@H](C)[C@@H](O)[C@]1(C)O` [clarithromycin]?
A: Oral clarithromycin treatment outcome (DM subject [10]; DM subject 1): discontinued use -; Oral clarithromycin treatment outcome (DM subject [10]; DM subject 2): clinical benefit; also recorded: efficacious; effect on endozepine-like activity of CSF [11]: reversed; also recorded: normalized

Q: Which “action of midazolam in gamma 2L deficient mice” value (gamma 2L deficient mice) does the source give for `CCOC(=O)c1ncn2c1CN(C)C(=O)c1cc(F)ccc1-2` [flumazenil] here?
A: Its value is “reversed”.

Q: And the endozepine-like molecule binding [12]?
A: Its endozepine-like molecule binding is “inhibits endozepine-like molecule binding”.

Q: What about the “clinical benefit in idiopathic hypersomnia” value [13] of the same molecule?
A: Its value is “clinical benefit”.

Q: And the “self reported sleepiness on the Stanford sleepiness scale” value (DM subject 1 [14])?
A: Its value is “reduced sleepiness”.

Q: What about the “time elapsed between visual stimulus and user input” value (DM subject 1 [15]; 2.0 mg intravenously administered flumazenil, versus before treatment) of the same molecule?
A: Its value is “dramatic decrease in time elapsed”.

Q: What about the “lapses in attention (reaction times >500 ms)” value (DM subject 1 [15]; intravenous flumazenil, 2 different doses incl. 2.0 mg) of the same molecule?
A: The value was “marked reduction in lapses in attention; also recorded: decreased”.

Q: And the “Epworth Sleepiness Scale” value (DM subject [8]; DM subject 4, ON flumazenil 12-18 mg sublingual plus 12 mg topical daily, 6 continuous weeks)?
A: Its value is 5.

Q: And the “Epworth Sleepiness Scale” value (DM subject [8]; [16])?
A: Its value is 7.

Reference: US11529358B2, “Treatment of conditions associated with myotonic dystrophy” (priority 2017, dated 2022)
